Source: the NIST ThermoML archive (doi:10.1016/j.jct.2016.01.019)
Values joined by “and” are separate entries in the source; they are usually repeats but may differ in a detail not shown here. Equal entries are not always repeated.

What was measured:
[1] = refractive index (Na D-line) (dimensionless); xn = mol fraction of the nth substance listed; details: 94.64 kPa, Liquid, Standard Abbe refractometry
[2] = xn = mol fraction of the nth substance listed; details: 94.64 kPa, Liquid, Vibrating tube method
[3] = Liquid; for mass density: 94.64 kPa, Vibrating tube method; for vapor or sublimation pressure: Ebulliometric method (Recirculating still)
[4] = refractive index (Na D-line) (dimensionless); details: 94.64 kPa, Liquid, Standard Abbe refractometry

OCCCO [propan-1,3-diol] + CC(O)CO
Details	mass density, [2] [kg/m3]	refractive index, [1]
293.15 K, x2 = 0	1052.75	1.43932
293.15 K, x2 = 0.0985	1051.85	1.43907
293.15 K, x2 = 0.2023	1050.9	1.43879
293.15 K, x2 = 0.3015	1049.75	1.43838
293.15 K, x2 = 0.3961	1048.38	1.4378
293.15 K, x2 = 0.5009	1046.9	1.43695
293.15 K, x2 = 0.5961	1045.18	1.436
293.15 K, x2 = 0.6965	1043.35	1.43508
293.15 K, x2 = 0.7974	1041.33	1.4342
293.15 K, x2 = 0.8985	1038.71	1.4331
298.15 K, x2 = 0	1049.67	1.43796
298.15 K, x2 = 0.0985	1048.71	1.4376
298.15 K, x2 = 0.2023	1047.71	1.43721
298.15 K, x2 = 0.3015	1046.51	1.43671
298.15 K, x2 = 0.3961	1045.09	1.43612
298.15 K, x2 = 0.5009	1043.57	1.43533
298.15 K, x2 = 0.5961	1041.79	1.43455
298.15 K, x2 = 0.6965	1039.9	1.43364
298.15 K, x2 = 0.7974	1037.77	1.43275
298.15 K, x2 = 0.8985	1035.15	1.43161
303.15 K, x2 = 0	1046.55	1.43665
303.15 K, x2 = 0.0985	1045.54	1.43619
303.15 K, x2 = 0.2023	1044.49	1.43572
303.15 K, x2 = 0.3015	1043.23	1.43521
303.15 K, x2 = 0.3961	1041.76	1.43459
303.15 K, x2 = 0.5009	1040.18	1.4339
303.15 K, x2 = 0.5961	1038.34	1.43318
303.15 K, x2 = 0.6965	1036.39	1.4321
303.15 K, x2 = 0.7974	1034.25	1.4311
303.15 K, x2 = 0.8985	1031.52	1.43017
308.15 K, x2 = 0	1043.45	1.43523
308.15 K, x2 = 0.0985	1042.36	1.43478
308.15 K, x2 = 0.2023	1041.24	1.43424
308.15 K, x2 = 0.3015	1039.93	1.43377
308.15 K, x2 = 0.3961	1038.41	1.43324
308.15 K, x2 = 0.5009	1036.78	1.43241
308.15 K, x2 = 0.5961	1034.87	1.43161
308.15 K, x2 = 0.6965	1032.85	1.43076
308.15 K, x2 = 0.7974	1030.65	1.42967
308.15 K, x2 = 0.8985	1027.85	1.42858
313.15 K, x2 = 0	1040.32	1.43385
313.15 K, x2 = 0.0985	1039.16	1.4333
313.15 K, x2 = 0.2023	1037.97	1.43276
313.15 K, x2 = 0.3015	1036.61	1.43207
313.15 K, x2 = 0.3961	1035.02	1.43145
313.15 K, x2 = 0.5009	1033.34	1.43061
313.15 K, x2 = 0.5961	1031.36	1.43
313.15 K, x2 = 0.6965	1029.27	1.42906
313.15 K, x2 = 0.7974	1027.04	1.42818
313.15 K, x2 = 0.8985	1024.18	1.42699
318.15 K, x2 = 0	1037.18	1.43255
318.15 K, x2 = 0.0985	1035.96	1.43195
318.15 K, x2 = 0.2023	1034.7	1.43131
318.15 K, x2 = 0.3015	1033.26	1.43057
318.15 K, x2 = 0.3961	1031.62	1.42992
318.15 K, x2 = 0.5009	1029.89	1.42921
318.15 K, x2 = 0.5961	1027.83	1.42848
318.15 K, x2 = 0.6965	1025.68	1.42752
318.15 K, x2 = 0.7974	1023.38	1.42653
318.15 K, x2 = 0.8985	1020.43	1.42545

OCCCO [propan-1,3-diol]
Details	mass density [kg/m3]	refractive index	vapor or sublimation pressure
[3], 293.15 K	1052.75	–	–
[3], 298.15 K	1049.67	–	–
[3], 303.15 K	1046.55	–	–
[3], 308.15 K	1043.45	–	–
[3], 313.15 K	1040.32	–	–
[3], 318.15 K	1037.18	–	–
[3], 414.2 K	–	–	6.65 kPa and 6.67 kPa
[3], 420.8 K	–	–	9.93 kPa
[3], 427.55 K	–	–	13.33 kPa
[3], 427.6 K	–	–	13.47 kPa
[3], 433.9 K	–	–	16.75 kPa
[3], 438.05 K	–	–	19.99 kPa
[3], 441.95 K	–	–	23.46 kPa
[3], 445.3 K	–	–	26.66 kPa
[3], 448.65 K	–	–	30.22 kPa
[3], 451.65 K	–	–	33.22 kPa
[3], 453.15 K	–	–	33.33 kPa
[3], 454.65 K	–	–	36.69 kPa
[3], 457.45 K	–	–	39.99 kPa
[3], 457.49 K	–	–	40.04 kPa
[3], 459.85 K	–	–	43.37 kPa
[3], 461.95 K	–	–	46.67 kPa and 46.66 kPa
[3], 463.95 K	–	–	49.97 kPa
[3], 465.45 K	–	–	53.24 kPa
[4], 293.15 K	–	1.43932	–
[4], 298.15 K	–	1.43796	–
[4], 303.15 K	–	1.43665	–
[4], 308.15 K	–	1.43523	–
[4], 313.15 K	–	1.43385	–
[4], 318.15 K	–	1.43255	–

CC(O)CO (centres undefined) [1,2-propanediol] + OCCCO
x1 = 1
Details	mass density, [2] [kg/m3]	refractive index, [1]
293.15 K	1036.25	1.43219
298.15 K	1032.61	1.4303
303.15 K	1028.93	1.42921
308.15 K	1025.19	1.42746
313.15 K	1021.42	1.42566
318.15 K	1017.65	1.42386

CC(O)CO (centres undefined) [1,2-propanediol]
Details	mass density [kg/m3]	refractive index	vapor or sublimation pressure
[3], 293.15 K	1036.25	–	–
[3], 298.15 K	1032.61	–	–
[3], 303.15 K	1028.93	–	–
[3], 308.15 K	1025.19	–	–
[3], 313.15 K	1021.42	–	–
[3], 318.15 K	1017.65	–	–
[3], 389.39 K	–	–	6.67 kPa
[3], 396.95 K	–	–	10 kPa
[3], 402.95 K	–	–	13.33 kPa
[3], 408.6 K	–	–	16.61 kPa
[3], 412.95 K	–	–	19.96 kPa
[3], 413.23 K	–	–	19.99 kPa
[3], 417.15 K	–	–	23.34 kPa
[3], 421.2 K	–	–	26.62 kPa
[3], 421.21 K	–	–	26.66 kPa
[3], 424.5 K	–	–	30 kPa
[3], 427.16 K	–	–	33.33 kPa
[3], 427.23 K	–	–	33.57 kPa
[3], 429.55 K	–	–	36.61 kPa
[3], 432.05 K	–	–	40.01 kPa and 39.99 kPa
[3], 433.7 K	–	–	43.33 kPa
[3], 436.07 K	–	–	46.66 kPa
[3], 437.77 K	–	–	50 kPa
[3], 439.74 K	–	–	53.25 kPa
[3], 441.27 K	–	–	56.74 kPa
[3], 443.15 K	–	–	59.99 kPa
[4], 293.15 K	–	1.43219	–
[4], 298.15 K	–	1.4303	–
[4], 303.15 K	–	1.42921	–
[4], 308.15 K	–	1.42746	–
[4], 313.15 K	–	1.42566	–
[4], 318.15 K	–	1.42386	–
